Values joined by “and” are separate entries in the source; they are usually repeats but may differ in a detail not shown here. Equal values may be shown once. Read-outs that look alike come from different tables or passages of the source. Values belong to the compound of their own block, whether it stands above or below them.
How the values were obtained:
SIRT7 [1] = target: T1, SIRT7 (Homo sapiens, UniProt Q9NRC8); assay: Fluor de Lys (FDL) SIRT7 deacetylase assay; type: biochemical; details: for IC50: 0.5 mM NAD+, read-out: FDL assay SIRT7 inhibition IC50; for inhibition at 50 µM: 50 μM compound, 37°C, 90 min; for Dose-dependent inhibition of SIRT7: FDL assay, Figure S5
T1 construct: His-tagged full length SIRT7 protein expression from BL21 bacterial cells; His; made in house; host or cells: E. coli BL21
T1 sequence (Q9NRC8 1-400): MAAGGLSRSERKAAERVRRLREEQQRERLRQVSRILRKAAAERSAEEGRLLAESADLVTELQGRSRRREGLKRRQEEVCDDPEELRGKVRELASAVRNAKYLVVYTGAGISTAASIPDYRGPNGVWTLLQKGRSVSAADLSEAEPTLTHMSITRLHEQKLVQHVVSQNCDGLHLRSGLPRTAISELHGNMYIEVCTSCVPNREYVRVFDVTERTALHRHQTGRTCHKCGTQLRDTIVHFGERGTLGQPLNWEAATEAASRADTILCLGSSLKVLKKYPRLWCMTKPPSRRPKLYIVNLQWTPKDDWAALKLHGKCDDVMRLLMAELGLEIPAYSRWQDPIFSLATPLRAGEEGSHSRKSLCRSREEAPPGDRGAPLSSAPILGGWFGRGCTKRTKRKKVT
Source text: To assess SIRT7 deacetylase activity using Fluor de Lys (FDL) assays, the peptide […]∗QLAGGK was synthesized and characterized as a substrate using fluorophore 7-methoxycoumarin-4-acetic acid (∗, MCA) (Figures 1A, S1A, and S1B). In the presence of both SIRT7 and NAD^+, a luminescence response was detected in the linear range (y = 31.88x + 2396, R^2 = 0.9742) (Figure 1B). We screened our preserved library of 242 natural products to find potential SIRT7 inhibitors.
For in vitro analysis of SIRT7 deacetylation, the reaction system contained 10 μg His-SIRT7, 0.5 mM NAD^+, 10 μM […](MCA)QLAGGK (synthesized by QYAOBIO; details in the supplementary files), 50 μM potential compound or 3 mM NAM, and assay buffer (10 mM Tris-HCl pH 8.0, 4 mM MgCl2, 0.2 mM DTT and 10% Glycerol). The deacetylation reactions were incubated at 37°C for 90 min. The fluorescence intensity was measured with a microplate reader (Synergy H4 Hybrid Reader, Biotek) at an excitation wavelength of 260 nm and detected at an emission spectrum of 300–600 nm. The IC50 values were calculated at 450 nm emission by GraphPad Prism 8.

SIRT7 [2] = target: T1, SIRT7; assay: Fluor de Lys (FDL) SIRT7 deacetylase assay; type: biochemical; details: 2 mM NAM treatment
SIRT7 [3] = target: T1, SIRT7; assay: Surface plasmon resonance (SPR) binding assay
Procedure: All SPR measurements were performed on Biacore T200 instrument (GE Healthcare) with running buffer (PBS+5% DMSO) at room temperature. The bacterially purified His-SIRT7 was covalently immobilized onto Series S Sensor Chip CM5 by a standard amino-coupling procedure in 10 mM sodium acetate (pH 5.5). Two-fold serial dilutions of YZL-51N or NAD^+ in 5% DMSO passed through the sensor chip at 30 μL/min for 120 s, followed by 240 s of dissociation flow. The KD value was calculated based on the concentration dependence of the observed steady-state response using Biacore T200 Evaluation software Version 1.0 (GE Healthcare).

SIRT7 [4] = target: T1, SIRT7; assay: Dot blot assay of SIRT7-mediated H3K18ac peptide deacetylation; type: biochemical; details: for Rescue of H3K18 acetylation: dot blot screening, 50 μM; for EC50: read-out: Dot blot assay H3K18ac rescue EC50
Source text: To avoid the bias of the fluorescence assay, we also performed dot blot assays for the effects of natural compounds on SIRT7-mediated deacetylation of H3K18ac peptides in vitro (Figures S2A and S2B). In this system, SIRT7 mediated a dose-dependent deacetylation of H3K18ac (Figure 1D). […] Based on comparisons of all the candidates, we selected YZL-51N as the best for further investigation (Figure 1F). […] Thus, P. americana derived YZL-51N was confirmed as an identified SIRT7 inhibitor using parallel peptide-based screening platforms.
For dot blot assays, the reaction system containing 10 μg His-SIRT7, 0.5 mM NAD^+, 10 μM biotin-H3K18ac peptides and 50 μM potential compound was mixed and incubated at 37°C for 90 min. Samples were transferred to a polyvinylidene difluoride (PVDF) membrane, and then blocked with 5% skimmed milk. The blots were probed with H3K18ac primary antibody at RT for 2 h and then incubated with secondary antibody at RT for 1h. The bands were visualized using ECL substrates (Thermo Fisher, USA) on Tanon 5200SF Imaging System.

EZH2 = tested on: EZH2; set-up: method as in PMID 23023262; details: EZH2 over EZH1 ref 52; cited from earlier work

Procedure for HCT116 cells: Cells were seeded into 96 well plates (4,000 cells/well). […] The cells were then washed and re-cultured in fresh medium for 48 h. […] Formazan were generated by the addition of 100 μL DMSO and shaking for 30 min. The absorbance of samples was measured at 570 nm using a microtiter plate reader (BioTek).

SMILES: COc1cc([C@@H]2c3cc4c(cc3[C@@H](O[C@@H]3O[C@@H]5CO[C@@H](C)O[C@H]5[C@H](O)[C@H]3O)[C@H]3COC(=O)[C@H]23)OCO4)cc(OC)c1O [etoposide, reference compound]
Cell proliferation (%, Mean ± SD) (HCT116 cells; single agent 5 μM): 92.7 ± 4.1% | Cell proliferation (%, Mean ± SD) (HCT116 cells; single agent 10 μM): 82.5 ± 6.0% | Cell proliferation (%, Mean ± SD) (HCT116 cells; single agent 20 μM): 73.5 ± 6.0% | Cell proliferation (%, Mean ± SD) (HCT116 cells; single agent 40 μM): 48.5 ± 2.4% | Cell proliferation (%, Mean ± SD) (HCT116 cells; single agent 80 μM): 27.0 ± 1.9%

SMILES: NC(=O)c1cccnc1 [NAM, nicotinamide, reference compound]
IC50 (SIRT7 [1]; 0-30 mM NAM): 2290 µM and ~2290 µM | inhibition at 2000 µM (SIRT7 [2]): 44.4%

SMILES: NC(=O)c1ccc[n+]([C@@H]2O[C@H](COP(=O)([O-])OP(=O)(O)OC[C@H]3O[C@@H](n4cnc5c(N)ncnc54)[C@H](O)[C@@H]3O)[C@@H](O)[C@H]2O)c1 [NAD^+]
Weaker affinity to SIRT7 than YZL-51N (SIRT7 [3]): 200 fold | Kd (SIRT7 [3]; immobilized His-SIRT7): > 200 µM

SMILES: O=C(O)/C(=C\C(=O)c1ccc(O)c(O)c1)c1ccc(O)c(O)c1 [compound 7]
inhibition at 50 µM (SIRT7 [1]): 52.7% | IC50 (SIRT7 [1]; 10 μM peptide): > 30 µM | Dose-dependent inhibition of SIRT7 (SIRT7 [1]): did not show a dose-dependent inhibition | Rescue of H3K18 acetylation (SIRT7 [4]): rescued H3K18 acetylation | EC50 (SIRT7 [4]): 32 µM

SMILES: Cc1cc(C)c(CNC(=O)c2cc(-c3ccc(CN4CCOCC4)cc3)cc3c2cnn3C2CCCC2)c(=O)[nH]1 [EPZ005687]
Selectivity against EZH1 (EZH2): 50 fold

Continued, values first:

inhibition at 50 µM (SIRT7 [1]): 47.5% | Dose-dependent inhibition of SIRT7 (SIRT7 [1]): did not show a dose-dependent inhibition
SMILES: COc1ccc(C(C)=O)cc1OC [compound 1]

inhibition at 50 µM (SIRT7 [1]): 12.3% | Rescue of H3K18 acetylation (SIRT7 [4]): rescued H3K18 acetylation | EC50 (SIRT7 [4]): 70.2 µM
SMILES: COC(=O)/C(=C\C(=O)c1ccc(OC)c(OC)c1)c1ccc(OC)c(OC)c1 [compound 6]
